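These data come from cells grown in 96-well plates and exposed to compound for 48 hours at five concentrations. Abbreviation: GI50, concentration required for 50% inhibition of growth. TGI: concentration producing complete growth inhibition.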
How the values were obtained:
Experiment in all cases: NCI tumour cell line growth inhibition, 48 h
786-0 renal = tested on: 786-0 renal
BT-549 breast = tested on: BT-549 breast
EKVX NSCLC = tested on: EKVX NSCLC
K-562 leukemia = tested on: K-562 leukemia
MDA-MB-435 = tested on: MDA-MB-435
NCI/ADR-RES ovarian = tested on: NCI/ADR-RES ovarian
OVCAR-8 ovarian = tested on: OVCAR-8 ovarian
SK-OV-3 ovarian = tested on: SK-OV-3 ovarian
SNB-19 CNS = tested on: SNB-19 CNS
M14 melanoma = tested on: M14 melanoma

Compound | TGI (786-0 renal) [µM] | TGI (BT-549 breast) [µM] | TGI (EKVX NSCLC) [µM] | TGI (K-562 leukemia) [µM] | TGI (MDA-MB-435) [µM] | TGI (NCI/ADR-RES ovarian) [µM] | TGI (OVCAR-8 ovarian) [µM] | TGI (SK-OV-3 ovarian) [µM] | TGI (SNB-19 CNS) [µM] | TGI (M14 melanoma) [µM] | GI50 (786-0 renal) [µM] | GI50 (EKVX NSCLC) [µM] | GI50 (K-562 leukemia) [µM] | GI50 (M14 melanoma) [µM] | GI50 (MDA-MB-435) [µM] | GI50 (NCI/ADR-RES ovarian) [µM] | GI50 (OVCAR-8 ovarian) [µM] | GI50 (SK-OV-3 ovarian) [µM] | GI50 (SNB-19 CNS) [µM] | GI50 (BT-549 breast) [µM]
COC(=O)C(C(=O)C(=O)NC1Nc2ccc(C)cc2S1)c1nc2ccc(Cl)cc2[nH]c1=O (stereo not drawn) | > 100 | > 100 | > 100 | > 100 | > 100 | > 100 | > 100 | > 100 | > 100 | – | – | – | – | – | – | – | – | – | – | –
C/C(=N/NC(=O)CC(=O)N(C(=O)c1ccccc1Cl)c1ccc(C)cc1)c1cc2ccccc2oc1=O | > 100 | – | > 100 | > 100 | – | – | > 100 | – | > 100 | > 100 | – | – | – | – | – | – | – | – | – | –
COc1cc2cccc(N=Cc3c(Br)ccc(OC)c3OC(C)C)c2cc1OC | 69.9 | – | > 100 | 92.9 | – | – | > 100 | > 100 | > 100 | > 100 | – | – | – | – | – | – | – | – | – | –
Fc1cc(-c2nnc3n2N=C(c2ccc(Cl)cc2Cl)CS3)c(Cl)cc1Cl | > 100 | – | > 100 | > 100 | 75.9 | 99.5 | > 100 | > 100 | > 100 | > 100 | 47.1 | 58.5 | 47.5 | 37.5 | 24.5 | 30.8 | 57.3 | 48 | 25.4 | –
C=CC1=CC(C)C[C@]1(O)C(=O)OC (stereo partly drawn) | – | – | – | – | – | – | – | > 100 | – | – | > 100 | > 100 | > 100 | > 100 | – | – | > 100 | – | > 100 | –
CC(=O)OCCC(O[Si](c1ccccc1)(c1ccccc1)C(C)(C)C)C(C)(C)O (stereo not drawn) | 77.2 | – | > 100 | > 100 | – | – | > 100 | > 100 | > 100 | > 100 | – | – | – | – | – | – | – | – | – | –
c1cnc2[nH]cc(-c3csc(-c4cn(CCCN5CCCCC5)c5ccccc45)n3)c2c1 | 3.06 | 3.24 | – | 3.52 | 3.09 | – | – | 3.36 | – | 3.45 | 1.63 | – | 1.74 | 1.76 | 1.67 | – | – | 1.8 | – | 1.68
CC[P+]1(CC)CCCC1 | > 100 | – | > 100 | > 100 | – | – | > 100 | > 100 | > 100 | > 100 | – | – | – | – | – | – | – | – | – | –
C1=C2CNCC3=Cc4ccc5ccccc5c4OC23Oc2c1ccc1ccccc21 | 31.5 | 40.7 | 34.1 | 21.2 | – | 6.06 | 14.9 | 12.8 | 29.3 | 5.08 | 5.1 | 5.81 | 2.95 | 2.17 | – | 2.1 | 2.99 | 3.41 | 6.95 | 11.3
COc1cc([C@H]2c3[nH]c4ccccc4c3C[C@H]3COC(=O)N32)cc(OC)c1O | 10.7 | > 100 | 22.7 | > 90.3 | > 100 | > 100 | 63.9 | – | > 100 | > 100 | – | – | – | – | – | – | – | – | – | –
CC(=O)[CH-]C(=O)c1ccccc1.CC(=O)[CH-]C(=O)c1ccccc1.[CH2-]CCC.[CH2-]CCC.[Sn+4] | 2.28 | – | 3.25 | 10.3 | – | – | 3.1 | 3.99 | 2.73 | 2.62 | 1.09 | 1.41 | 0.331 | 1.16 | – | – | 1.36 | 2.27 | 1.3 | –
COc1ccc2[nH]c3c(=O)[nH]ncc3c2c1 | > 100 | – | > 100 | > 100 | – | – | > 100 | > 100 | > 100 | > 100 | – | – | – | – | – | – | – | – | – | –
COC(=O)c1cc2c3c(ccc2[nH]1)N(C(=O)c1cc2c4c(ccc2[nH]1)N(C(=O)c1cc2c5c(ccc2[nH]1)N(C(N)=O)CC5)CC4)CC3 | > 31.9 | – | > 100 | > 100 | – | – | > 30.8 | 8.02 | 12.6 | > 21.3 | – | – | – | – | – | – | – | – | – | –
COc1ccc(NC(=O)c2sc3nc4c(cc3c2N)CCCC4)cc1 | 30.5 | 13.9 | > 100 | > 100 | – | 3.85 | > 100 | > 100 | > 100 | 1.28 | 0.36 | 1.13 | 0.309 | 0.254 | – | 0.384 | 2.38 | 1.92 | 1.57 | 0.41
NC(=O)C(=O)n1ncc(Cl)c(Cl)c1=O | 58.5 | – | 67.5 | 47 | > 100 | > 100 | 65.9 | > 100 | > 100 | 46.9 | – | – | – | – | – | – | – | – | – | –
CCC(=O)c1cc([N+](=O)[O-])c(Br)s1 | 26.6 | – | 34.8 | 6.82 | 18.7 | 24.1 | 5.04 | 33.9 | 35.3 | 10.6 | 12.6 | 16.4 | 2.16 | 3.13 | 4.77 | 6.15 | 2.23 | 19.4 | 17.4 | –
COc1nc2c(c(O)c(C)c(=O)n2OC2OC(COC(C)=O)C(OC(C)=O)C(OC(C)=O)C2OC(C)=O)c(=O)n1C (stereo not drawn) | > 100 | – | > 100 | > 100 | – | – | > 100 | – | > 100 | > 100 | – | – | – | – | – | – | – | – | – | –
CCN(CC)CCCCC1CCN(CC(=O)N2c3ccccc3NC(=O)CC2C)CC1 (stereo not drawn) | > 100 | – | > 100 | > 100 | – | – | > 100 | > 100 | > 100 | > 100 | – | – | – | – | – | – | – | – | – | –
COc1ccc(C2NCCc3c2[nH]c2ccccc32)cc1 (stereo not drawn) | > 100 | – | > 100 | > 100 | – | – | > 100 | > 100 | > 100 | > 100 | – | – | – | – | – | – | – | – | – | –
CCOC(=O)C[C@@]12CCCNC1(C)CCc1ccccc12 (stereo partly drawn) | > 100 | – | > 100 | > 100 | – | – | > 100 | > 100 | > 100 | > 100 | – | – | – | – | – | – | – | – | – | –
C/C(=N/O)c1ccc2c(c1)C(=NO)c1cc(/C(C)=N/O)ccc1-2 | 42.3 | – | 41.7 | > 100 | – | – | 32.3 | 36.5 | 26.8 | 31.2 | – | – | – | – | – | – | – | – | – | –
O=C(O)[C@@H]1CCCC[C@@H]1C(=O)N(C1CCCCC1)C1CCCCC1 | > 100 | – | > 100 | > 100 | – | – | > 100 | > 100 | – | > 100 | – | – | – | – | – | – | – | – | – | –
